Laboratory results: patent EP3046573B1, “AMYLIN ANALOGUES” (Zealand Pharma A/S, priority 2013, dated 2015)
Where two headings read alike, the source gives them in different places. Numbered stars: 1 amine (or outer) side, 2 acyl side, 3 side chain; on linkers, the order of the positions; unused ones are H or OH. Bridge positions count the residues as written; N and C are the ends. Square brackets hold non-standard residues; d marks the D form. Peptide text beside a SMILES is read from it. * marks the point of attachment. C20 diacid = O=C(O)CCCCCCCCCCCCCCCCCCC(=O)*; γGlu = O=C(O)[C@H](CCC(=O)[*:2])N[*:1]; NMeI = CC[C@H](C)[C@H](NC)C(=O)O; Orn = NCCC[C@H](N)C(=O)O; Dap = NC[C@H](N)C(=O)O; Sar = CNCC(=O)O

How the values were obtained:
[1] = biological target: T1, human calcitonin receptor (hCTR2) (Homo sapiens, UniProt P30988); experiment: hCTR2 assay: induction of cAMP (AlphaScreen cAMP Assay kit) in COS7 cells expressing hCTR2; assay type: cell-based
T1 construct: expressed in transfected cells
T1 sequence (P30988 25-474): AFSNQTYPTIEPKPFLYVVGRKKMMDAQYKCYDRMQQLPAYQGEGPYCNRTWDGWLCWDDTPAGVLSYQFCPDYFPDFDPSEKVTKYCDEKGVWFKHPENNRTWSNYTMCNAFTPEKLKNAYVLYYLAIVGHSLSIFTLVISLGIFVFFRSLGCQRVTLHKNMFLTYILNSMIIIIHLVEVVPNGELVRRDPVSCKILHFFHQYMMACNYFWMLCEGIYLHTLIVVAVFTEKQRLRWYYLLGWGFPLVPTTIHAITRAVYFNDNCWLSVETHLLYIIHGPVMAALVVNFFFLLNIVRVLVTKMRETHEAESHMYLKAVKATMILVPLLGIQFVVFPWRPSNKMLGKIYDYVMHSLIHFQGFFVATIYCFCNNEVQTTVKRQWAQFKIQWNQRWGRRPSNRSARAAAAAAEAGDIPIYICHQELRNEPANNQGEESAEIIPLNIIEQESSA
Summary of the method: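 cAMP read-out by AlphaScreen after cell lysis; EC50 and % efficacy vs pramlintide from 4-parameter logistic fitting. Agonist stimulation: hCTR2-COS7 stable cells, 15 min, 37° C, 100 µM IBMX, 0.1% casein, Tyrode/HEPES pH 7.4.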

[2] = Solubility assessment (turbidity absorbance at 325 nm); assay type: physicochemical; settings: stock 2 mg/ml diluted 1:1, ambient temperature (typically 25°C), n=1; for Solubility, Acetate buffer pH 4: 100 mM acetate buffer pH 4.0; for Solubility, Acetate buffer pH 5: 100 mM acetate buffer pH 5.0; for Solubility, Histidine buffer pH 6: 100 mM histidine buffer pH 6.0; for Solubility, Histidine buffer pH 7: 100 mM histidine buffer pH 7.0; for Solubility, Phosphate buffer pH 6: 100 mM phosphate buffer pH 6.0; for Solubility, Phosphate buffer pH 7: 100 mM phosphate buffer pH 7.0; for Solubility, Phosphate buffer pH 7.5: 100 mM phosphate buffer pH7.5
Summary of the method: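 Turbidimetric screen across pH 4.0–7.5 in 100 mM acetate, histidine and phosphate buffers. A 2 mg/ml peptide stock (pH 2.5) was diluted 1:1 into each, then A325 measured at ambient temperature; values ≤ 0.02 AU denoted solubility of 1 mg/ml or more.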

[3] = cAMP induction in COS7 cells expressing hCTR2, average of a minimum of 3 determinations, read-out: hCTR2 EC50

Structure (SMILES) | EC50 [1, 3] | Solubility, Acetate buffer pH 4 [2] | Solubility, Acetate buffer pH 5 [2] | Solubility, Histidine buffer pH 6 [2] | Solubility, Histidine buffer pH 7 [2] | Solubility, Phosphate buffer pH 6 [2] | Solubility, Phosphate buffer pH 7 [2] | Solubility, Phosphate buffer pH 7.5 [2] | EC50 [1]
CC[C@H](C)[C@@H](C(=O)N[C@@H](CC(C)C)C(=O)N[C@@H](CO)C(=O)N[C@@H](CO)C(=O)N[C@H](C(=O)N[C@@H](CC(N)=O)C(=O)N[C@H](C(=O)NCC(=O)N[C@@H](CO)C(=O)N[C@@H](CC(N)=O)C(=O)N[C@H](C(=O)N1CCC[C@H]1C(N)=O)[C@@H](C)O)C(C)C)[C@@H](C)O)N(C)C(=O)CN(C)C(=O)[C@H](Cc1ccccc1)NC(=O)[C@H](CC(N)=O)NC(=O)[C@H](CC(N)=O)NC(=O)[C@H](CO)NC(=O)[C@H](CO)NC(=O)[C@H](Cc1c[nH]cn1)NC(=O)[C@H](Cc1c[nH]cn1)NC(=O)[C@H](CC(C)C)NC(=O)[C@H](Cc1ccccc1)NC(=O)[C@H](CCC(=O)O)NC(=O)[C@H](C)NC(=O)[C@H](CC(C)C)NC(=O)[C@H](CCCNC(=N)N)NC(=O)[C@H](CCC(N)=O)NC(=O)[C@@H](NC(=O)[C@H](C)NC(=O)[C@@H]1CSSC[C@H](NC(=O)[C@H](CCCN)NC(=O)CC[C@H](NC(=O)CCCCCCCCCCCCCCCCCCC(=O)O)C(=O)O)C(=O)N[C@@H](CC(N)=O)C(=O)N[C@@H]([C@@H](C)O)C(=O)N[C@@H](C)C(=O)N[C@@H]([C@@H](C)O)C(=O)N1)[C@@H](C)O [Compound 66, [19CD]-isoGlu-Orn-C()NTATC()ATQRLAEFLHHSSNNF-Gly(Me)-Ile(Me)-LSSTNVGSNTP-NH2] ({C20 diacid-γGlu}-[Orn]CNTATCATQRLAEFLHHSSNNF[Sar][NMeI]LSSTNVGSNTP-NH2; disulfide 2-7) | 110 pM | SS (SS indicates solubility ≥ 1mg/ml) | SS (SS indicates solubility ≥ 1mg/ml) | SS (SS indicates solubility ≥ 1mg/ml) | SS (SS indicates solubility ≥ 1mg/ml) | SS (SS indicates solubility ≥ 1mg/ml) | SS (SS indicates solubility ≥ 1mg/ml) | SS (SS indicates solubility ≥ 1mg/ml) | –
CC[C@H](C)[C@@H](C(=O)N[C@@H](CC(C)C)C(=O)N[C@@H](CO)C(=O)N[C@@H](CO)C(=O)N[C@H](C(=O)N[C@@H](CC(N)=O)C(=O)N[C@H](C(=O)NCC(=O)N[C@@H](CO)C(=O)N[C@@H](CC(N)=O)C(=O)N[C@H](C(=O)N1CCC[C@H]1C(N)=O)[C@@H](C)O)C(C)C)[C@@H](C)O)N(C)C(=O)[C@H](C)NC(=O)CN(C)C(=O)[C@H](Cc1ccccc1)NC(=O)[C@H](CC(N)=O)NC(=O)[C@H](CC(N)=O)NC(=O)[C@H](CO)NC(=O)[C@H](CO)NC(=O)[C@H](Cc1c[nH]cn1)NC(=O)[C@H](Cc1c[nH]cn1)NC(=O)[C@H](CC(C)C)NC(=O)[C@H](Cc1ccccc1)NC(=O)[C@H](CCC(=O)O)NC(=O)[C@H](C)NC(=O)[C@H](CC(C)C)NC(=O)[C@H](CCCNC(=N)N)NC(=O)[C@H](CCC(N)=O)NC(=O)[C@@H](NC(=O)[C@H](C)NC(=O)[C@@H]1CSSC[C@H](NC(=O)[C@H](CN)NC(=O)CC[C@H](NC(=O)CCCCCCCCCCCCCCCCCCC(=O)O)C(=O)O)C(=O)N[C@@H](CC(N)=O)C(=O)N[C@@H]([C@@H](C)O)C(=O)N[C@@H](C)C(=O)N[C@@H]([C@@H](C)O)C(=O)N1)[C@@H](C)O [Compound 67, [19CD]-isoGlu-Dap-C()NTATC()ATQRLAEFLHHSSNNF-Gly(Me)-A-Ile(Me)-LSSTNVGSNTP-NH2] ({C20 diacid-γGlu}-[Dap]CNTATCATQRLAEFLHHSSNNF[Sar]A[NMeI]LSSTNVGSNTP-NH2; disulfide 2-7) | – | SS (SS indicates solubility ≥ 1mg/ml) | SS (SS indicates solubility ≥ 1mg/ml) | SS (SS indicates solubility ≥ 1mg/ml) | SS (SS indicates solubility ≥ 1mg/ml) | SS (SS indicates solubility ≥ 1mg/ml) | SS (SS indicates solubility ≥ 1mg/ml) | SS (SS indicates solubility ≥ 1mg/ml) | 190 pM
CC[C@H](C)[C@@H](C(=O)N[C@@H](CC(C)C)C(=O)N[C@H](CO)C(=O)N[C@@H](CO)C(=O)N[C@H](C(=O)N[C@@H](CC(N)=O)C(=O)N[C@H](C(=O)NCC(=O)N[C@@H](CO)C(=O)N[C@@H](CC(N)=O)C(=O)N[C@H](C(=O)N1CCC[C@H]1C(N)=O)[C@@H](C)O)C(C)C)[C@@H](C)O)N(C)C(=O)[C@H](C)NC(=O)CN(C)C(=O)[C@H](Cc1ccccc1)NC(=O)[C@H](CC(N)=O)NC(=O)[C@H](CC(N)=O)NC(=O)[C@H](CO)NC(=O)[C@H](CO)NC(=O)[C@H](CCCNC(=N)N)NC(=O)[C@H](Cc1c[nH]cn1)NC(=O)[C@H](CC(C)C)NC(=O)[C@H](Cc1ccccc1)NC(=O)[C@H](CCC(=O)O)NC(=O)[C@H](C)NC(=O)[C@H](CC(C)C)NC(=O)[C@H](CCCNC(=N)N)NC(=O)[C@H](CCC(N)=O)NC(=O)[C@@H](NC(=O)[C@H](C)NC(=O)[C@@H]1CSSC[C@H](NC(=O)[C@H](CCCCN)NC(=O)CC[C@H](NC(=O)CCCCCCCCCCCCCCCCCCC(=O)O)C(=O)O)C(=O)N[C@@H](CC(N)=O)C(=O)N[C@@H]([C@@H](C)O)C(=O)N[C@@H](C)C(=O)N[C@@H]([C@@H](C)O)C(=O)N1)[C@@H](C)O [Compound 68, [19CD]-isoGlu-KC()NTATC()ATQRLAEFLHRSSNNF-Gly(Me)-A-Ile(Me)-L-DSer-STNVGSNTP-NH2] ({C20 diacid-γGlu}-KCNTATCATQRLAEFLHRSSNNF[Sar]A[NMeI]L[dS]STNVGSNTP-NH2; disulfide 2-7) | – | SS (SS indicates solubility ≥ 1mg/ml) | SS (SS indicates solubility ≥ 1mg/ml) | SS (SS indicates solubility ≥ 1mg/ml) | SS (SS indicates solubility ≥ 1mg/ml) | SS (SS indicates solubility ≥ 1mg/ml) | SS (SS indicates solubility ≥ 1mg/ml) | SS (SS indicates solubility ≥ 1mg/ml) | 96 pM
CC[C@H](C)[C@@H](C(=O)N[C@@H](CC(C)C)C(=O)N[C@@H](CO)C(=O)N[C@@H](CO)C(=O)N[C@H](C(=O)N[C@@H](CC(N)=O)C(=O)N[C@H](C(=O)NCC(=O)N[C@@H](CO)C(=O)N[C@@H](CC(N)=O)C(=O)N[C@H](C(=O)N1CCC[C@H]1C(N)=O)[C@@H](C)O)C(C)C)[C@@H](C)O)N(C)C(=O)CN(C)C(=O)[C@H](Cc1ccccc1)NC(=O)[C@H](CC(N)=O)NC(=O)[C@H](CC(N)=O)NC(=O)[C@H](CO)NC(=O)[C@H](CO)NC(=O)[C@H](Cc1c[nH]cn1)NC(=O)[C@H](Cc1c[nH]cn1)NC(=O)[C@H](CC(C)C)NC(=O)[C@H](Cc1ccccc1)NC(=O)[C@H](CCC(=O)O)NC(=O)[C@H](C)NC(=O)[C@H](CC(C)C)NC(=O)[C@H](CCCNC(=N)N)NC(=O)[C@H](CCC(N)=O)NC(=O)[C@@H](NC(=O)[C@H](C)NC(=O)[C@@H]1CSSC[C@H](NC(=O)[C@H](CN)NC(=O)CC[C@H](NC(=O)CCCCCCCCCCCCCCCCCCC(=O)O)C(=O)O)C(=O)N[C@@H](CC(N)=O)C(=O)N[C@@H]([C@@H](C)O)C(=O)N[C@@H](C)C(=O)N[C@@H]([C@@H](C)O)C(=O)N1)[C@@H](C)O [Compound 69, [19CD]-isoGlu-Dap-C()NTATC()ATQRLAEFLHHSSNNF-Gly(Me)-Ile(Me)-LSSTNVGSNTP-NH2] ({C20 diacid-γGlu}-[Dap]CNTATCATQRLAEFLHHSSNNF[Sar][NMeI]LSSTNVGSNTP-NH2; disulfide 2-7) | 240 pM | SS (SS indicates solubility ≥ 1mg/ml) | SS (SS indicates solubility ≥ 1mg/ml) | SS (SS indicates solubility ≥ 1mg/ml) | SS (SS indicates solubility ≥ 1mg/ml) | SS (SS indicates solubility ≥ 1mg/ml) | SS (SS indicates solubility ≥ 1mg/ml) | SS (SS indicates solubility ≥ 1mg/ml) | –
